Results on 8 compounds are retold here after US6500858B2, “Taxoid anti-tumor agents and pharmaceutical compositions thereof” (The Research Foundation of the state University of New York, priority 1994, dated 2002).

One series relates to MCF7 (mammary carcinoma). As to the kind of experiment: tumor cell growth inhibition (SRB, 72 h drug exposure). Type of series: cell-based, human. The conditions noted are these: for IC50: 72 h drug exposure. Here is the method: (§1) Lower numbers indicate higher potency. […] The data represent the mean values of at least three separate experiments. Lower numbers indicate greater activity.
(§2) Assessment of cell growth inhibition was determined according to the methods of Skehan et al., J. Nat. Cancer Inst. […] Briefly, cells were plated between 400 and 1200 cells/well in 96 well plates and incubated at 37° C. for 15-18 h prior to drug addition to allow attachment of cells. […] After a 72 h incubation, […] of ice-cold 50% TCA was added to each well and incubated for 1 h at 4° C. Plates were then washed 5 times with tap water to remove TCA, low-molecular-weight metabolites and serum proteins. Sulforhodamine B (SRB) (0.4%, […]) was added to each well. Following a 5 min incubation at room temperature, plates were rinsed 5 times with 0.1% acetic acid and air dried. […] Optical density was measured at 570 nm.

Another series concerns A121 (ovarian carcinoma). The series is described as above. Format: cell-based, human. Conditions: for IC50: 72 h drug exposure. The procedure: as §1, §2
Series [1] has as its system A549 (non-small cell lung carcinoma). The description is as above. Type of series: cell-based, human. Conditions: for IC50: 72 h drug exposure, read-out: A549 (NSCLC) IC50. The procedure: as §1, §2
The next series has as its system HT-29 (colon carcinoma). Described as above. Format: cell-based, human. Conditions: for IC50: 72 h drug exposure. Here is the method:
as §1, §2

The test system of series [2] is LCC6-WT: human breast carcinoma. Put plainly: cytotoxicity assay of second generation taxoids. Type of series: cell-based. The conditions noted are these: 72 h drug exposure; read-out: LCC6-WT IC50. The procedure: A cytotoxicity assay of these new second generation taxoids was performed on human breast cancer cell lines, LCC6-WT and LCC-MDR, and selected taxoids were also assayed for their potency against MCF7 and MCF7-R (Skehan, P., et al., J. Nat. Cancer Inst. 1990, 82, 1107-1112).

Series [3] deals with MCF7-R (mammary carcinoma cells 180-fold resistant to adriamycin). Put plainly: tumor cell growth inhibition (SRB, 72 h drug exposure). Conditions: for IC50: 72 h drug exposure. Type of series: cell-based, human. Here is the method:
as §1, §2

For series [4], the system named is LCC6-MDR: MDR1 transduced line. As to the kind of experiment: cytotoxicity assay of second generation taxoids. Format: cell-based, human. Conditions: LCC6 and MCF7 pairs.
The mark [5] stands for this setting: Table 1, read-out: MCF7 (breast) IC50.

Structures are written as SMILES. “Also recorded” adds a separate entry of the source. Where two headings read alike, the source gives them in different places.

For `CC(=O)O[C@@]12CO[C@@H]1C[C@H](O)[C@@]1(C)C(=O)[C@H](O)C3=C(C)[C@@H](OC(=O)[C@H](O)[C@H](CC(C)(C)C)NC(=O)OC(C)(C)C)C[C@@](O)([C@@H](OC(=O)c4ccccc4)[C@H]21)C3(C)C` [3′-dephenyl-3′-neopentyldocetaxel], the cytotoxicity in words result (in the series with MCF7 (mammary carcinoma) (MCF7 human breast); in the series on A121 (ovarian carcinoma) (A121 human ovarian); in series [1] (A549 human non-small cell lung); in the series on HT-29 (colon carcinoma) (HT-29 human colon)) was “virtually not cytotoxic” throughout.
Usually IC50 stands for the concentration needed to halve the response being measured. As for `CCC(=O)OC1C(=O)C2(C)C(O)CC3OCC3(OC(C)=O)C2C(OC(=O)c2cccc(OC)c2)C2(O)CC(OC(=O)C(O)C(C=C(C)C)NC(=O)OC(C)(C)C)C(C)=C1C2(C)C` (centres unmarked) [Taxoid 7f, 3′-Dephenyl-3′-(2-methylprop-1-enyl)-2-debenzoyl-2-(3-methoxybenzoyl)-10-propanoyldocetaxel], the IC50 in series [2] amounted to 1 nM; in the series on MCF7 (mammary carcinoma) (Table 3, read-out: MCF7 IC50), 0.36 nM; in series [3] (Table 3) it was 0.33 nM. The “activity against drug-resistant vs drug-sensitive cell lines, in words” value in series [4] is given as “slightly better activity against the drug-resistant cell lines; also recorded: virtually no difference in activity”.
On to `CCC(=O)OC1C(=O)C2(C)C(O)CC3OCC3(OC(C)=O)C2C(OC(=O)c2cccc(OC)c2)C2(O)CC(OC(=O)C(O)C(NC(=O)OC(C)(C)C)[C@H]3CC3(C)C)C(C)=C1C2(C)C` (stereo partly drawn) [Taxoid 7j, 3′-Dephenyl-3′-[(S)-2,2-dimethylcyclopropyl]-2-debenzoyl-2-(3-methoxybenzoyl)-10-propanoyldocetaxel], for which the half-inhibitory concentration (IC50) in series [2] stood at 0.48 nM; in the series with MCF7 (mammary carcinoma) (Table 3, read-out: MCF7 IC50) it was 0.6 nM; in series [3] (Table 3), 1.5 nM.
Regarding `COc1cccc(C(=O)OC2C3C4(OC(C)=O)COC4CC(O)C3(C)C(=O)C(OC(C)=O)C3=C(C)C(OC(=O)C(O)C(C=C(C)C)NC(=O)OC(C)(C)C)CC2(O)C3(C)C)c1` (centres unmarked) [Taxoid 7l, 3′-Dephenyl-3′-(2-methylprop-1-enyl)-2-debenzoyl-2-(3-methoxybenzoyl)-10-acetyldocetaxel], the IC50 in series [2] is 0.6 nM; in the series on MCF7 (mammary carcinoma) (Table 3, read-out: MCF7 IC50), 0.8 nM; in series [3] (Table 3), 2.3 nM.
For `CCC(=O)OC1C(=O)C2(C)C(O)CC3OCC3(OC(C)=O)C2C(OC(=O)c2cccc(N=[N+]=[N-])c2)C2(O)CC(OC(=O)C(O)C(CC(C)C)NC(=O)OC(C)(C)C)C(C)=C1C2(C)C` (centres unmarked) [Taxoid 7n, 3′-Dephenyl-3′-(2-methylpropyl)-2-debenzoyl-2-(3-azidobenzoyl)-10-propanoyldocetaxel], the IC50 in series [2] is 1.1 nM; with MCF7 (mammary carcinoma) (Table 3, read-out: MCF7 IC50), 1 nM; in series [3] (Table 3), 2.1 nM.
In the case of `CC(=O)OC1C(=O)C2(C)C(O)CC3OCC3(OC(C)=O)C2C(OC(=O)c2cccc(C)c2)C2(O)CC(OC(=O)C(O)C(C=C(C)C)NC(=O)OC(C)(C)C)C(C)=C1C2(C)C` (centres unmarked) [Taxoid 7q, 3′-Dephenyl-3′-(2-methylprop-1-enyl)-2-debenzoyl-2-(3-methylbenzoyl)-10-acetyldocetaxel], the IC50 was 1.5 nM in series [2]; 0.8 nM in the series on MCF7 (mammary carcinoma) (Table 3, read-out: MCF7 IC50); 5 nM in series [3] (Table 3).
Consider `CC=CC(NC(=O)OC(C)(C)C)C(O)C(=O)OC1CC2(O)C(OC(=O)c3ccccc3)C3C4(OC(C)=O)COC4CC(O)C3(C)C(=O)C(OC(C)=O)C(=C1C)C2(C)C` (centres unmarked) [Taxoid Ia, 3′-dephenyl-3′-(1-propenyl)-10-acetyldocetaxel], for which the IC50 in the series on MCF7 (mammary carcinoma) (setting [5]) came to 0.51 nM; in the series with A121 (ovarian carcinoma) it was 0.9 nM; in series [1], 0.54 nM; in the series on HT-29 (colon carcinoma), 0.76 nM; in series [3] (Table 1), 14 nM. Also, the “times better activity than docetaxel” value in series [3] (MCF7-R) is given as 17 times. In series [3] (MCF7-R), the “times better activity than paclitaxel” value was found to be 21 times.
On to `CC(=O)OC1C(=O)C2(C)C(O)CC3OCC3(OC(C)=O)C2C(OC(=O)c2ccccc2)C2(O)CC(OC(=O)C(O)C(NC(=O)OC(C)(C)C)C(F)(F)F)C(C)=C1C2(C)C` (centres unmarked) [Taxoid Ig, 3′-Dephenyl-3 ′-trifluoromethyl-10-acetyldocetaxel], for which the IC50 with MCF7 (mammary carcinoma) (setting [5]) turned out to be 0.25 nM; in the series on A121 (ovarian carcinoma) it was 0.37 nM; in series [1], 0.25 nM; in the series with HT-29 (colon carcinoma), 0.4 nM; in series [3] (Table 1), 17 nM.
